{
  "source": "paper PMC3166231",
  "about": "(Inorganic chemistry, 2010)",
  "key": {"[1]": {"conditions": "pH = 7.4, [Fe3+] = 1.0 × 10^−6 mol dm^−3, [L] = 1.0 × 10^−5 mol dm^−3, cited from earlier work"}, "[2]": {"conditions": "ref [14]; cited from earlier work"}, "Literature Fe": {"assay": "Literature Fe", "format": "binding", "conditions": "refs [19], [21]; for Δ1–2: difference K1 − K2 of cited stepwise constants; for Δ2–3: difference K2 − K3 of cited stepwise constants"}, "[3]": {"conditions": "cited from earlier work; for pFe: bidentate donor group, ref [17]–[20]; for K2 (proton independent stepwise formation constant): second ligand; for K3 (proton independent stepwise formation constant): third ligand"}},
  "note": "Counter-ions that a name gives are not always drawn. Like-named read-outs stand apart in the source and are kept apart here. Marks after values point to notes of the source that are not given here.",
  "data": [
    {"compound": "O=C(O)c1ccc(-n2nc(-c3ccccc3O)nc2-c2ccccc2O)cc1", "note": "[Deferasirox, deferasirox]", "values": [
      {"measurement": "pFe", "setting": "[1]; ref [65]", "value": "23.5 ^d"}
    ]},
    {"compound": "Oc1cccnc1O", "note": "[3-hydroxy-2-pyridinone]", "values": [
      {"measurement": "pKa of the 3-hydroxy-2-pyridinone donor group alone", "setting": "[2]", "value": 8.66}
    ]},
    {"compound": "O=c1[nH]cccc1O", "note": "[3,2-HOPO]", "values": [
      {"measurement": "Δ1–2", "setting": "Literature Fe", "value": 1.71},
      {"measurement": "Δ2–3", "setting": "Literature Fe", "value": 1.76},
      {"measurement": "pFe", "setting": "[3]", "value": 16.26},
      {"measurement": "K1 (proton independent stepwise formation constant)", "setting": "[3]; iron complex, first ligand, ref [19], [21]", "value": 11.48},
      {"measurement": "K2 (proton independent stepwise formation constant)", "setting": "[3]; iron complex, ref [19], [21]", "value": 9.77},
      {"measurement": "K3 (proton independent stepwise formation constant)", "setting": "[3]; iron complex, ref [19], [21]", "value": 8.01}
    ]},
    {"compound": "Transferrin: iron transport protein used as pFe comparison", "values": [
      {"measurement": "pFe", "setting": "[1]; ref [66]", "value": "23.6 ^e"}
    ]},
    {"compound": "CC(=O)N(O)CCCCCNC(=O)CCC(=O)N(O)CCCCCNC(=O)CCC(=O)N(O)CCCCCN", "note": "[Deferrioxamine B, desferrioxamine B mesylate]", "values": [
      {"measurement": "pFe", "setting": "[1]; ref [67]", "value": "26.6 ^h"}
    ]},
    {"compound": "Cn1cccc(O)c1=O", "note": "[1-methyl-3-hydroxypyridin-2-one]", "values": [
      {"measurement": "pFe", "setting": "[1]; ref [63]", "value": "16 ^b"}
    ]},
    {"compound": "Oc1ccccc1O", "note": "[catechol]", "values": [
      {"measurement": "Δ1–2", "setting": "Literature Fe", "value": 4.9},
      {"measurement": "Δ2–3", "setting": "Literature Fe", "value": 6.1},
      {"measurement": "pFe", "setting": "[3]", "value": 15.1},
      {"measurement": "K2 (proton independent stepwise formation constant)", "setting": "[3]; iron complex, ref [19], [21]", "value": 15.5},
      {"measurement": "K3 (proton independent stepwise formation constant)", "setting": "[3]; iron complex, ref [19], [21]", "value": 9.4}
    ]},
    {"compound": "Cc1c(O)c(=O)ccn1C", "note": "[Deferiprone, 1,2-dimethyl-3-hydroxy-4-pyridinone]", "values": [
      {"measurement": "pFe", "setting": "[1]; ref [64]", "value": "19.4 ^c"}
    ]}
  ]
}
